{
  "source": "patent US11759480B2",
  "about": "“Compositions and methods for CAR T cell therapy” (ENDOCYTE, INC., priority 2017, dated 2023)",
  "key": {"[1]": {"test_system": "OV90", "assay": "EC17 dependent anti-tumor activity, OV90 xenograft (Example 26)", "format": "in vivo, NSG mice", "conditions": "500 nmoles/kg once per week, 5 million CAR-T", "source_text": "Immunodeficient NSG mice (Jackson Laboratory) were used to show the efficacy of CAR T cell anti-tumor activity with a single dose of EC17 per week. Two folate receptor expressing cancer cell lines were used to establish subcutaneous solid tumor xenografts: MDA-MB-231 has high folate receptor expression, while OV90 has low folate receptor expression. When tumor volume of around 100-250 mm^3 was reached, mice were divided into two groups. Mice in the “EC17 500 nmol/kg” group (nmol/kg is equivalent to nmoles/kg as used in this patent application for the bridge) were injected with 500 nmoles/kg of body weight of EC17, while mice in the “no EC17” group were not injected with EC17. Four hours later, mice in both groups were administered 5 million anti-FITC CAR-T cells. After initial administration of EC17 and CAR-T cells, only mice in the “EC17 500 nmol/kg” group were injected (i.v.) with 500 nmoles/kg of EC17 once per week. Anti-tumor efficacy was monitored by tumor volume."}, "[2]": {"test_system": "MDA-MB-231", "assay": "CAR-T and EC17 therapy-related toxicity versus tumor size (Example 46)", "format": "in vivo, NSG mice", "method": "To explore whether CAR-T therapy related toxicity is dependent on tumor load, NSG mice were s.c. implanted with MDA-MB-231. Ten mice with different tumor sizes ranging between 150-900 mm^3 were selected for this study. For the CAR-T cells, 10.5 million GFP+FITC-CAR-T cells were i.v. injected followed by 500 nmol/kg EC17 administration 48 hours later (FIG. 71A). Body weights of mice were compared between before CAR-T injection and 18 hours post EC17 administration. […] With higher tumor burden, mice lost more body weight after CAR-T and EC17 treatment. […] Plasma samples were separated immediately and stored at −20° C. until the analysis of cytokine levels using a human cytokine detection kit (Biolegend). […] With higher tumor burden, more IL-6 was produced after CAR-T and EC17 treatment. IL-6 has been widely reported to be the predicting biomarker for severe cytokine release syndrome in human patients with liquid tumors when they are treated with conventional CAR-T therapy."}, "[3]": {"test_system": "MDA-MB-231", "assay": "FITC-Folate dose escalation study in vivo (Example 20)", "method": "To test whether gradual escalation of FITC-Folate dose can minimize CART cell mediated toxicity without compromising anti-tumor efficacy of CAR T cells, an experiment was designed. A dose of FITC-Folate (0.05 nmole/kg) was introduced first into NSG mice bearing MDA-MB-231 (tumor volume about 50-100 mm^3) along with anti-FITC CAR T cell injections (using about 15×10^6 cells). An additional two doses of about 0.05 nmole/kg FITC-Folate was administered to the mice. […] After a gradual increase of FITC-Folate dose, mice were treated with a 500 nmole/kg dose of FITC-Folate. […] General toxicity of each treatment group was monitored by measuring body weight loss. Tumor volume was measured to monitor anti-FITC CAR T cells' anti-tumor efficacy."}, "[4]": {"test_system": "anti-FITC CAR T cells with MDA-MB-231", "assay": "In vitro interferon-γ assay (Example 22)", "format": "cell-based, Human", "method": "In order to study the relationship between bridge dose and anti-FITC CAR T cell activation, a folate receptor positive cancer cell line (MDA-MB-231) was seeded at a density of 10^4 cells/100 ul of media in each well of a 96-well plate and the cells were grown overnight. Anti-FITC CAR T cells (5×10^4 cells) were then added into each well containing cancer cells with various concentrations of Folate-FITC (from 0.001 nM to 100 μM) for 6-24 hours. After co-incubation, the plates containing anti-FITC CAR T cells and cancer cells were centrifuged for 10 min at 350×g to remove cells and cellular debris, and 50 ul of supernatant was assayed by ELISA (Human IFN-γ ELISA kit from Biolegend) to detect IFN-γ production by anti-FITC CAR T cells."}, "[5]": {"test_system": "MDA-MB-231 tumor", "assay": "CAR-T anti-tumor activity and toxicity at different EC17 dose levels (Example 27)", "format": "in vivo", "method": "Immunodeficient NSG mice (Jackson Laboratory) were used to study CAR T cell anti-tumor activity and its toxicity in the presence of different EC17 dose levels. MDA-MB-231 tumor cells were used to establish subcutaneous solid tumor xenografts. When tumor volume of around 100-150 mm^3 was reached, various concentrations of EC17 were pre-injected 4 hours before i.v. injection of 10 million CAR-T cells. Various concentrations of EC17 were then administrated three times per week after the initial EC17 and CAR-T cell injections. The negative control group was injected with 500 nmol/kg EC17 (4 hour in advance) and […] unmodified T cells. 500 nmol/kg EC17 was then administrated three times per week after initial injection. Tumor size and body weight were measured to monitor the anti-tumor activity and the toxicity. […] By adjusting the EC17 dose level, CAR-T anti-tumor activity can be maintained while the resulting body weight loss (toxicity) can be reduced. In FIGS. 20A and 20B, EC17 is also referred to as “adaptor” or “bi-specific adaptor”."}, "[6]": {"test_system": "MDA-MB-231", "assay": "FITC-CAR-T/EC17 therapy, MDA-MB-231 model (Example 28)", "format": "in vivo, NSG mice", "conditions": "500 nmol/kg weekly, 5 million FITC-CAR-T", "method": "To test whether FITC-CAR-T/EC17 therapy has anti-tumor activity in various FR+ tumor models, NSG mice were subcutaneously implanted with MDA-MB-231 (triple negative breast cancer cell line), OV90 (human ovarian cancer cell line), KB (human cervical adenocarcinoma cell line), SKOV-3 (human ovarian carcinoma cell line), or HEK293-FRa (HEK293 stably-transfected with human FRa). When tumor size reached […], one dose of EC17 at 500 nmol/kg of body weight was injected by tail vein followed with administering of 5 million FITC-CAR-T cells 4 hours later. 500 nmol/kg EC17 was dosed once every week after the initial EC17/CAR-T administration (about day 7), tumor size and body weights of mice were monitored three times per week. The EC17 dosing days were labeled as green dashed vertical lines in the graph. […] EC17 dose-dependent temporary body weight loss was also observed in all tumor bearing mice, indicating the activation of CAR-Ts is EC17-dependent in these mice."}},
  "data": [
    {"smiles": "Nc1nc2ncc(CNc3ccc(C(=O)NC(CCC(=O)NCCNC(=S)Nc4ccc(-c5c6ccc(=O)cc-6oc6cc(O)ccc56)c(C(=O)O)c4)C(=O)O)cc3)nc2c(=O)[nH]1", "note": "(stereo not drawn) [EC17, FITC-Folate]", "values": [
      {"measurement": "anti-tumor activity", "setting": "[1]", "result": "EC17 dependent anti-tumor activity"},
      {"measurement": "cytokine release syndrome grade", "setting": "[2]; 18 hours after 500 nmol/kg, 10.5 million CAR-T", "result": 2, "unit": "grade"},
      {"measurement": "body weight changes", "setting": "[2]; tumors 150-900 mm^3", "result": "tumor size dependent"},
      {"measurement": "production of IL-6", "setting": "[2]; tumors 150-900 mm^3", "result": "tumor size dependent"},
      {"measurement": "effect on CAR T cells' anti-tumor efficacy", "setting": "[3]; gradual escalation", "result": "did not negatively affect"},
      {"measurement": "toxicity", "setting": "[3]; gradual escalation 0.05 to 500 nmole/kg, 15×10^6 CAR T cells", "result": "no serious toxicity"},
      {"measurement": "optimal bridge dose (highest IFN-γ level)", "setting": "[4]; 0.001 nM to 100 μM, 6-24 hours", "result": 10, "unit": "nM"},
      {"measurement": "IFN-γ production", "setting": "[4]; 10 μM and 100 μM", "result": "not detected"},
      {"measurement": "toxicity (body weight loss)", "setting": "[5]; 20 nmol/kg TIW", "result": "least toxicity"},
      {"measurement": "toxicity (body weight loss)", "setting": "[5]; 500 nmol/kg TIW", "result": "strongest toxicity"},
      {"measurement": "tumor outcome", "setting": "[5]; 500, 100 or 20 nmol/kg TIW, 10 million CAR-T", "result": "all eliminated"},
      {"measurement": "cures", "setting": "[6]", "result": 100, "unit": "%"}
    ]}
  ]
}
